Data published in publication PMC5007466, “VCP recruitment to mitochondria causes mitophagy impairment and neurodegeneration in models of Huntington's disease” (Nature Communications, 2016).

How the values were obtained:
[1] = system: HdhQ111 striatal cells and striata of HD R6/2 and YAC128 mice; assay: VCP total protein level, HD cells and HD mouse striata (western blot); conditions: HV-3 treatment, HD cell cultures and HD animal brains
Method: Protein concentrations were determined by Bradford assay. Protein was resuspended in Laemmli buffer, loaded on SDS–PAGE, and transferred onto nitrocellulose membranes. Membranes were probed with the indicated antibodies, followed by visualization with ECL. Representative blots have been cropped for presentation. Images of full-size blots are presented in Supplementary Fig. 9. […]
green). Lower: the enlarged area is labeled in green. (f) The sequence in VCP corresponding to HV-3 in Htt was deleted (Δ VCP). GST, GST-VCP, or GST-ΔVCP was incubated with total lysates of mouse brain for 16 hours followed by Western blot with anti -Htt antibodies. The representative blots are from three independent experiments.
Supplementary Figure 5: Treatment of peptide inhibitor HV-3 in HD animal models. (a) HD R6/2 mice and wildtype littermates were treated with either a control peptide or peptide HV-3 (3 mg/kg/day, subcutaneous administration with an Alzet osmotic pump) from 5 to 13 weeks of age. The pump was replaced every four weeks. […] Mouse behaviors and HD -associated pathology were determined […] after beginning treatment. […]
(b) To t a l protein lysates were extracted from HdhQ111 striatal cells and the striata of HD R6/2 and YAC128 mice. VCP protein levels were determined by Western blot analysis. […]

HD mouse striatal cells = assay: Caspase-3 activity (apoptosis); type: cell-based; conditions: 24 h serum starvation, HV-3
Method: mouse striatal cells were treated with thapsigargin (1μM) or tunicamycin (10μ g/ml) for 16 hours i n the presence or absence of HV -3 (3 µM). GRP78 total protein levels were determined by western blot analysis. Representative blots of three independent experiments are shown. Actin was used here as a loading control. (b) Tw e n t y -four hours of serum starvation was performed in HD mouse striatal cells.
Caspase-3 activity analysis was performed in the indicated groups. Data are mean ± SEM of three independent experiments. (c) Flag-VCP and GFP-LC3B were co-transfected into HdhQ7 striatal cells.
Total lysates were isolated after 36 hours of transfection. The GFP -LC3B levels were examined by western blot analysis. Actin was used as a loading control. Histogram: quantitation of GFP-LC3B total protein level. Data are mean ± SEM of three independent experiments.
(1 picture or pasted object on this page, not shown here)

[2] = system: VCP/Htt interaction (GST-VCP with full-length Htt of mouse brain lysate); assay: GST pull-down of VCP/Htt interaction; type: binding; conditions: GST-VCP + total mouse brain lysate, 3 µM peptide, 16 h, n = 3
Method: Bacteria-expressed GST or GST–VCP, or GST–VCP truncated mutants were immobilized on glutathione-Sepharose 4B beads (GE Healthcare) for three hours and then washed three times. Beads were incubated with total lysates of mouse brains overnight at 4 °C. Beads were then washed with a GST binding buffer (100 mM NaCl, 50 mM NaF, 2 mM EDTA, 1% Triton-X-100 and protease inhibitor cocktail) and were analysed by SDS–PAGE and IB.
Supplementary Figure 4: Rational design of a peptide inhibitor to block VCP/Htt interaction. (a) GST or GST-VCP was incubated with total lysates of mouse brain and the indicated peptides ( 3 µM) for 16 hours, followed by immunoblotting with anti-Htt antibodies. Representative blots are from three independent experiments. Quantitation of VCP/Htt binding was shown below the blot as the m ean of three independent experiments. Data are mean ± SEM. *, p<0.05 vs. T AT -treated group (Paired Student’s t test). (b) HEK293 cells were co-expressed with GFP-VCP and Myc-73Q FL plasmids as indicated. After 48 hours incubation with the indicated peptides ( 3 µM/day, each), immunoprecipitation analysis was performed. The shown blots are from three independent experiments. (c) HEK293 cells were co-expressed with GFP-VCP and Myc-73Q FL plasmids as indicated. […] The blots of the bindings of mtHtt/VCP were quantitated with NIH Image J software. The IC50 was calculated. […]

Question: What does the source list for CSCC[C@H](NC(=O)[C@@H](NC(=O)[C@H](CC(C)C)NC(=O)[C@@H](NC(=O)[C@H](Cc1c[nH]cn1)NC(=O)CCCCCNC(=O)[C@H](CCCNC(=N)N)NC(=O)[C@H](CCCNC(=N)N)NC(=O)[C@H](CCCNC(=N)N)NC(=O)[C@H](CCC(N)=O)NC(=O)[C@H](CCCNC(=N)N)NC(=O)[C@H](CCCNC(=N)N)NC(=O)[C@H](CCCCN)NC(=O)[C@H](CCCCN)NC(=O)[C@H](CCCNC(=N)N)NC(=O)CNC(=O)[C@@H](N)Cc1ccc(O)cc1)C(C)C)C(C)C)C(=O)N[C@@H](CS)C(=O)N[C@@H](C)C(=O)N[C@H](C(N)=O)[C@@H](C)O [HV-3]?
Answer: VCP total protein levels [1]: no effects on VCP total protein levels; apoptosis (caspase-3 activity) (HD mouse striatal cells): did not affect apoptosis; block of VCP/Htt interaction [2]: only the addition of peptide HV-3 blocks the interaction of VCP/Htt
